Experimental data from the NIST ThermoML archive (doi:10.1021/je500886a).

Test: mn = molality of the nth substance listed, in mol/kg
Details: 101 kPa, Liquid

O=C[C@@H](O)[C@@H](O)[C@H](O)[C@H](O)CO [D-mannose] + O
Details | mass density, 288.15 K [kg/m3] | mass density, 298.15 K [kg/m3] | mass density, 308.15 K [kg/m3] | mass density, 318.15 K [kg/m3] | viscosity, 288.15 K [mPa·s] | viscosity, 298.15 K [mPa·s] | viscosity, 308.15 K [mPa·s] | viscosity, 318.15 K [mPa·s]
m1 = 0.0501 | – | – | – | – | 1.168 | 0.912 | 0.735 | 0.608
m1 = 0.05278 | 1002.76 | 1000.64 | 997.63 | 993.78 | – | – | – | –
m1 = 0.07151 | 1004.03 | 1001.9 | 998.87 | 995.02 | 1.181 | 0.92 | 0.742 | 0.613
m1 = 0.09003 | 1005.28 | 1003.14 | 1000.09 | 996.23 | – | – | – | –
m1 = 0.09353 | – | – | – | – | 1.191 | 0.929 | 0.749 | –
m1 = 0.1065 | 1006.39 | 1004.23 | 1001.17 | 997.3 | – | – | – | –
m1 = 0.1123 | – | – | – | – | 1.201 | 0.936 | 0.756 | 0.624
m1 = 0.1277 | – | 1005.63 | 1002.56 | 998.67 | – | – | – | –
m1 = 0.1318 | – | – | – | – | 1.214 | 0.945 | 0.761 | 0.628
m1 = 0.1488 | – | – | 1003.92 | 1000.02 | – | – | – | –
m1 = 0.1515 | – | – | – | – | 1.225 | 0.952 | 0.766 | 0.634

OC[C@@H](O)[C@@H](O)[C@H](O)[C@H](O)CO [D-mannitol] + O
Details | mass density, 288.15 K [kg/m3] | mass density, 298.15 K [kg/m3] | mass density, 308.15 K [kg/m3] | mass density, 318.15 K [kg/m3] | viscosity, 288.15 K [mPa·s] | viscosity, 298.15 K [mPa·s] | viscosity, 308.15 K [mPa·s] | viscosity, 318.15 K [mPa·s]
m1 = 0.04909 | 1002.3 | 1000.12 | 997.07 | 993.22 | – | – | – | –
m1 = 0.05269 | – | – | – | – | 1.176 | 0.918 | 0.74 | 0.611
m1 = 0.06889 | 1003.56 | 1001.34 | 998.27 | 994.41 | – | – | – | –
m1 = 0.07011 | – | – | – | – | 1.189 | 0.927 | 0.747 | 0.617
m1 = 0.09002 | 1004.91 | 1002.62 | 999.54 | 995.65 | – | – | – | –
m1 = 0.09107 | – | – | – | – | 1.203 | 0.936 | 0.754 | 0.621
m1 = 0.1097 | – | – | – | – | 1.217 | 0.945 | 0.761 | 0.627
m1 = 0.1134 | 1006.38 | 1004.04 | 1000.93 | 997.03 | – | – | – | –
m1 = 0.1266 | 1007.19 | 1004.82 | 1001.71 | 997.8 | – | – | – | –
m1 = 0.1293 | – | – | – | – | 1.23 | 0.955 | 0.765 | 0.633
m1 = 0.1469 | 1008.45 | 1006.03 | 1002.9 | 998.97 | – | – | – | –
m1 = 0.15 | – | – | – | – | 1.246 | 0.964 | 0.774 | 0.639

O=C[C@H](O)[C@@H](O)[C@H](O)[C@H](O)CO [D-glucose] + O
Details | mass density [kg/m3] | viscosity [mPa·s]
288.15 K, m1 = 0.0513 | – | 1.167
288.15 K, m1 = 0.05146 | 1002.66 | –
288.15 K, m1 = 0.06904 | – | 1.176
288.15 K, m1 = 0.07233 | 1004.08 | –
288.15 K, m1 = 0.09026 | – | 1.188
288.15 K, m1 = 0.09244 | 1005.44 | –
288.15 K, m1 = 0.1114 | – | 1.2
288.15 K, m1 = 0.1294 | – | 1.212
288.15 K, m1 = 0.149 | – | 1.219
298.15 K, m1 = 0.0513 | – | 0.911
298.15 K, m1 = 0.05146 | 1000.54 | –
298.15 K, m1 = 0.06904 | – | 0.918
298.15 K, m1 = 0.07233 | 1001.94 | –
298.15 K, m1 = 0.09026 | – | 0.926
298.15 K, m1 = 0.09244 | 1003.27 | –
298.15 K, m1 = 0.1096 | 1004.41 | –
298.15 K, m1 = 0.1114 | – | 0.935
298.15 K, m1 = 0.1241 | 1005.36 | –
298.15 K, m1 = 0.1294 | – | 0.942
298.15 K, m1 = 0.149 | – | 0.951
308.15 K, m1 = 0.0513 | – | 0.735
308.15 K, m1 = 0.06904 | – | 0.741
308.15 K, m1 = 0.07233 | 998.9 | –
308.15 K, m1 = 0.09026 | – | 0.747
308.15 K, m1 = 0.09244 | 1000.22 | –
308.15 K, m1 = 0.1096 | 1001.34 | –
308.15 K, m1 = 0.1114 | – | 0.755
308.15 K, m1 = 0.1241 | 1002.28 | –
308.15 K, m1 = 0.1294 | – | 0.759
308.15 K, m1 = 0.1456 | 1003.66 | –
308.15 K, m1 = 0.149 | – | 0.764
318.15 K, m1 = 0.0513 | – | 0.609
318.15 K, m1 = 0.05146 | 993.66 | –
318.15 K, m1 = 0.06904 | – | 0.613
318.15 K, m1 = 0.07233 | 995.03 | –
318.15 K, m1 = 0.09026 | – | 0.618
318.15 K, m1 = 0.09244 | 996.33 | –
318.15 K, m1 = 0.1096 | 997.44 | –
318.15 K, m1 = 0.1114 | – | 0.623
318.15 K, m1 = 0.1241 | 998.37 | –
318.15 K, m1 = 0.1294 | – | 0.627
318.15 K, m1 = 0.1456 | 999.74 | –
318.15 K, m1 = 0.149 | – | 0.632
